US20060019967A1 (priority 2004, published 2006)

Molecular target: HCV NS3 protease (Hepatitis C virus genotype 1b, UniProt P26663)
Type: biochemical

Chain of HCV NS3 protease (P26663 1027-1206, other chains not shown): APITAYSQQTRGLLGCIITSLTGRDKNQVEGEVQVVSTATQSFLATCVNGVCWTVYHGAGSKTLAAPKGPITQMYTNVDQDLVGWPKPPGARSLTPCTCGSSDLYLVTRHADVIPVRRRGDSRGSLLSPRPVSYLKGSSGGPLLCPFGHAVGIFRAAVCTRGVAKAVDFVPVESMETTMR

| Structure (SMILES) | inhibition of the proteolytic activity of HCV NS3 protease |
| --- | --- |
| Cc1cc(S(=O)(=O)c2c([N+](=O)[O-])cc(C(F)(F)F)cc2[N+](=O)[O-])c(Cl)cc1Cl [Compound 1] | effectively inhibited |
| CCOC(=O)/C(C#N)=C/Nc1ccc(S(=O)(=O)c2ccc(N/C=C(\C#N)C(=O)OCC)cc2)cc1 [Compound 14] | effectively inhibited |
| CCOC(=O)C(=CNc1ccc(S(=O)(=O)c2ccc(NC=C(C(=O)OCC)C(=O)OCC)cc2)cc1)C(=O)OCC [Compound 20] | effectively inhibited |
| O=C(CC1=NCCS1)c1cccs1 [Compound 21] | effectively inhibited |
| CN(C)/C=C(/C(=O)c1cccs1)c1nnnn1-c1ccccc1 [Compound 25] | effectively inhibited |
